Assay results reported in ChEMBL document CHEMBL5303762, “Data for DCP probe BI-8668” (2023).
Calls of active or inactive are those of the source. The rule behind the calls is not given here.

Legend:
[1] = molecular target: Vasopressin V1a receptor (Homo sapiens) (UniProt P37288); test: V1A/HUM Eurofins SafetyScreen44 (BI); details: Compound concentration 10.0 uM
hERG (KCNH2) = hERG (KCNH2) (Homo sapiens, UniProt Q12809); test: HERG_DOFETILIDE Eurofins SafetyScreen44 (BI); details: probe dofetilide, compound concentration 10 uM, read-out: % Ctrl
[2] = molecular target: Cholecystokinin receptor type A (Homo sapiens) (UniProt P32238); test: CCKA/H Eurofins SafetyScreen44 (BI); details: Compound concentration 10.0 uM
[3] = molecular target: Cannabinoid receptor 2 (Homo sapiens) (UniProt P34972); test: CB2/PERIPH/H Eurofins SafetyScreen44 (BI); details: Compound concentration 10.0 uM
[4] = molecular target: cGMP-inhibited 3',5'-cyclic phosphodiesterase 3A (Homo sapiens) (UniProt Q14432); test: PDE3A Eurofins SafetyScreen44 (BI); details: Compound concentration 10.0 uM
[5] = molecular target: D(2) dopamine receptor (Homo sapiens) (UniProt P14416); test: D2SH_AGON Eurofins SafetyScreen44 (BI); details: filed as agonist, Compound concentration 10.0 uM
[6] = molecular target: GABA-A receptor; anion channel (Rattus norvegicus) (UniProt O09028+P15431+P18506+P18508+P19969+P20236+P23574+P23576+P28471+P28473+P30191+P62813+P63079+P63138+Q91ZM7+Q9ES14); test: BZD/CENTR/R Eurofins SafetyScreen44 (BI); assay type: protein-complex assay; details: Compound concentration 10.0 uM
[7] = molecular target: Mu-type opioid receptor (Homo sapiens) (UniProt P35372); test: MU/H Eurofins SafetyScreen44 (BI); details: Compound concentration 10.0 uM
[8] = molecular target: Beta-1 adrenergic receptor (Homo sapiens) (UniProt P08588); test: BETA1/HUM Eurofins SafetyScreen44 (BI); details: Compound concentration 10.0 uM
[9] = molecular target: Amiloride-sensitive sodium channel, ENaC (Homo sapiens, UniProt P37088+P51168+P51170); test: Inhibition of Na+ current by Ussing Chamber; assay type: functional, tissue-based, epithelium
[10] = molecular target: D(1A) dopamine receptor (Homo sapiens) (UniProt P21728); test: D1/H Eurofins SafetyScreen44 (BI); details: filed as antagonist, Compound concentration 10.0 uM
[11] = molecular target: Adenosine receptor A2a (Homo sapiens) (UniProt P29274); test: A2A/H Eurofins SafetyScreen44 (BI); details: filed as antagonist, Compound concentration 10.0 uM
[12] = molecular target: T1, 5-hydroxytryptamine receptor 1A (Homo sapiens) (UniProt P08908); test: 5HT1A/H Eurofins SafetyScreen44 (BI); details: Compound concentration 10.0 uM
T1 sequence (whole entry): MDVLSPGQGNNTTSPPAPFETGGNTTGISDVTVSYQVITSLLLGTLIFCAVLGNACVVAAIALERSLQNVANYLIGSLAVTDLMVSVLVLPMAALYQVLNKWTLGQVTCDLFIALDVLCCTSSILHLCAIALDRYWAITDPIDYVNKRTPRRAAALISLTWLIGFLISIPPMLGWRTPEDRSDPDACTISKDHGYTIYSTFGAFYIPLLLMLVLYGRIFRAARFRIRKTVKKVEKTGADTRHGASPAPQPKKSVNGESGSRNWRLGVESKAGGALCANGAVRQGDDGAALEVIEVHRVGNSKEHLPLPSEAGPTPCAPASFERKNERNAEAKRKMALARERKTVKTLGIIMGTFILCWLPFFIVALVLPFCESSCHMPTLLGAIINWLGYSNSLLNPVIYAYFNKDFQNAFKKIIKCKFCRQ

[13] = molecular target: Angiotensin-converting enzyme (Homo sapiens) (UniProt P12821); test: ACE(HU_AMTCH400) Eurofins SafetyScreen44 (BI)
[14] = molecular target: Delta-type opioid receptor (Homo sapiens) (UniProt P41143); test: DELTA2/H Eurofins SafetyScreen44 (BI); details: Compound concentration 10.0 uM
[15] = molecular target: 5-hydroxytryptamine receptor 2B (Homo sapiens) (UniProt P41595); test: 5HT2B/H AG Eurofins SafetyScreen44 (BI); details: filed as agonist, Compound concentration 10.0 uM
[16] = molecular target: Sodium-dependent noradrenaline transporter (Homo sapiens) (UniProt P23975); test: NEUP/H Eurofins SafetyScreen44 (BI); details: Compound concentration 10.0 uM
[17] = molecular target: T2, 5-hydroxytryptamine receptor 3A (Homo sapiens) (UniProt P46098); test: 5HT3/H Eurofins SafetyScreen44 (BI); details: Compound concentration 10.0 uM
T2 sequence (whole entry): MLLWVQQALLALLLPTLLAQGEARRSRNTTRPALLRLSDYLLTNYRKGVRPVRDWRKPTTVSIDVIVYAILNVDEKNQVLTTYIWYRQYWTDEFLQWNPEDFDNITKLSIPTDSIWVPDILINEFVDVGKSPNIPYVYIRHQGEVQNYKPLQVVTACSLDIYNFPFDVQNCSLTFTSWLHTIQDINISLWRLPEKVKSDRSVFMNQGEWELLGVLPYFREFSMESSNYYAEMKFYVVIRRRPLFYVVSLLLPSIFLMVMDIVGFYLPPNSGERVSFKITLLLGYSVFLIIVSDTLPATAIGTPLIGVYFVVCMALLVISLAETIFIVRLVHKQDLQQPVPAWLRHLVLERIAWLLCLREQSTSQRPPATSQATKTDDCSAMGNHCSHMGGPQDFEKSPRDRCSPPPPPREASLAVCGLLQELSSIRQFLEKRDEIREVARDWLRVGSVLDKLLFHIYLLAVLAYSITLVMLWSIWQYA

[18] = molecular target: Histamine H1 receptor (Homo sapiens) (UniProt P35367); test: H1/PYRIL/HS Eurofins SafetyScreen44 (BI); details: Compound concentration 10.0 uM
[19] = molecular target: T3, Alpha-2A adrenergic receptor (Homo sapiens) (UniProt P08913); test: ALPHA2A/HU Eurofins SafetyScreen44 (BI); details: Compound concentration 10.0 uM
T3 sequence (whole entry): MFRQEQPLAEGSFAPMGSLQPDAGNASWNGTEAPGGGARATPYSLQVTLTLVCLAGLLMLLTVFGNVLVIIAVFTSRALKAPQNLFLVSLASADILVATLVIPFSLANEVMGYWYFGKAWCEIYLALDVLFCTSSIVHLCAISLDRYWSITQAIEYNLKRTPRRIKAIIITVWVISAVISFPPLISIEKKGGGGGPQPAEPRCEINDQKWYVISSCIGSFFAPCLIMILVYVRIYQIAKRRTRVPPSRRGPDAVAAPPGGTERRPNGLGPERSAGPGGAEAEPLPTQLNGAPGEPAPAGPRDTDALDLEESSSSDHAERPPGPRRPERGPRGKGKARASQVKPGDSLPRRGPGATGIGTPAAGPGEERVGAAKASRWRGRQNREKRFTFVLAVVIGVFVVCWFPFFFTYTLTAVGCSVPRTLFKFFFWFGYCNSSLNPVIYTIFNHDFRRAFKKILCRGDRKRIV

[20] = molecular target: L-type calcium channel alpha-1C (dihydropyridine site) (Rattus norvegicus, UniProt P22002); test: CA+/DHPSI/R Eurofins SafetyScreen44 (BI); details: compound concentration 10 uM, read-out: % Ctrl
[21] = molecular target: Sodium-dependent dopamine transporter (Homo sapiens) (UniProt Q01959); test: DATRANS/HUM Eurofins SafetyScreen44 (BI); details: Compound concentration 10.0 uM
[22] = molecular target: Neuronal acetylcholine receptor; alpha4/beta2 (Homo sapiens) (UniProt P17787+P43681); test: N_NEURO_A4B2 Eurofins SafetyScreen44 (BI); assay type: protein-complex assay; details: filed as agonist, Compound concentration 10.0 uM

Sequence of Angiotensin-converting enzyme (Homo sapiens) (P12821 whole entry): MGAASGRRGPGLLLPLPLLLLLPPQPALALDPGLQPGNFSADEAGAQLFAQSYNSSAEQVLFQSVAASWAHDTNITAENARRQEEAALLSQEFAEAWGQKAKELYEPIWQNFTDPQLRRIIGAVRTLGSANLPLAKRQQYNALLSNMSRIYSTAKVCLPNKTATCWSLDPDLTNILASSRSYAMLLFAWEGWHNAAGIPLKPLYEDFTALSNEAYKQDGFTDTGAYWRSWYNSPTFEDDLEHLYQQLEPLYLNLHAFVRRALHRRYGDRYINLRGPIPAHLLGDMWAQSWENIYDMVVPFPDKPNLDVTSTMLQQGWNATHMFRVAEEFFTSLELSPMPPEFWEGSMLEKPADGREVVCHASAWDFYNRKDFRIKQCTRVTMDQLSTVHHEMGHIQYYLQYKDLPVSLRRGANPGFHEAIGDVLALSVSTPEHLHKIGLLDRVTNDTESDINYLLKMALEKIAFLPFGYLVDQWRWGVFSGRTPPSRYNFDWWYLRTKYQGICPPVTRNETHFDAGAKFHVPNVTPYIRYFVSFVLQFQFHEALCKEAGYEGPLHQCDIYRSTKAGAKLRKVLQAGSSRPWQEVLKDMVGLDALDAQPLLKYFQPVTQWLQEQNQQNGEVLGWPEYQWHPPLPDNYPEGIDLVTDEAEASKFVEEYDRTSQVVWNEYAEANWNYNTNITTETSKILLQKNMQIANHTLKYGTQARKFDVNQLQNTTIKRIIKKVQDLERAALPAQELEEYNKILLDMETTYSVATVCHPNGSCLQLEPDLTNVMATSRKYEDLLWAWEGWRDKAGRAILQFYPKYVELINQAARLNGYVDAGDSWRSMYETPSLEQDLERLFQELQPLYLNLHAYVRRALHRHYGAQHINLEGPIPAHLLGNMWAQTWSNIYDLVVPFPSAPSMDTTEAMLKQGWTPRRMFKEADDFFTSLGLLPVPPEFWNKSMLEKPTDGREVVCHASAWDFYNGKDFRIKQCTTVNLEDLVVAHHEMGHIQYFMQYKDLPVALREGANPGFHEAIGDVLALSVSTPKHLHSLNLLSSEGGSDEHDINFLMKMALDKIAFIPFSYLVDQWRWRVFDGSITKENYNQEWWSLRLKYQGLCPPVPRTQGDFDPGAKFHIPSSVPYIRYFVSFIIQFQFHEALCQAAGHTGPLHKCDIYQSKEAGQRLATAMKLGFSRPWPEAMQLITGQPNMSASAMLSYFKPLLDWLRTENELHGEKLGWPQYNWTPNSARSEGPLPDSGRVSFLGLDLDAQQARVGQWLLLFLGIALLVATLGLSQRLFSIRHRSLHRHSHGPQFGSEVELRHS
Sequence of Mu-type opioid receptor (Homo sapiens) (P35372 whole entry): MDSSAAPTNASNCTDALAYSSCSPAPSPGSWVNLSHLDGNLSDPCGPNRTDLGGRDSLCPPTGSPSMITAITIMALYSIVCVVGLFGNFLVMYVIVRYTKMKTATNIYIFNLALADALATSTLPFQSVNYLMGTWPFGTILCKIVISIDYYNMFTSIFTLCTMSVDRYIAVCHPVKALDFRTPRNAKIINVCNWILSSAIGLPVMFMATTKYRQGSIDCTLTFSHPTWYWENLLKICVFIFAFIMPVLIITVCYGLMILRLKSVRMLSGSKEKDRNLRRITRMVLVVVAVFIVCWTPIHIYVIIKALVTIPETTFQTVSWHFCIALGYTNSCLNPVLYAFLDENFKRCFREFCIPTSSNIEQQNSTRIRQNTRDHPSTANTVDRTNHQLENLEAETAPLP
Sequence of Amiloride-sensitive sodium channel, ENaC (P37088 whole entry): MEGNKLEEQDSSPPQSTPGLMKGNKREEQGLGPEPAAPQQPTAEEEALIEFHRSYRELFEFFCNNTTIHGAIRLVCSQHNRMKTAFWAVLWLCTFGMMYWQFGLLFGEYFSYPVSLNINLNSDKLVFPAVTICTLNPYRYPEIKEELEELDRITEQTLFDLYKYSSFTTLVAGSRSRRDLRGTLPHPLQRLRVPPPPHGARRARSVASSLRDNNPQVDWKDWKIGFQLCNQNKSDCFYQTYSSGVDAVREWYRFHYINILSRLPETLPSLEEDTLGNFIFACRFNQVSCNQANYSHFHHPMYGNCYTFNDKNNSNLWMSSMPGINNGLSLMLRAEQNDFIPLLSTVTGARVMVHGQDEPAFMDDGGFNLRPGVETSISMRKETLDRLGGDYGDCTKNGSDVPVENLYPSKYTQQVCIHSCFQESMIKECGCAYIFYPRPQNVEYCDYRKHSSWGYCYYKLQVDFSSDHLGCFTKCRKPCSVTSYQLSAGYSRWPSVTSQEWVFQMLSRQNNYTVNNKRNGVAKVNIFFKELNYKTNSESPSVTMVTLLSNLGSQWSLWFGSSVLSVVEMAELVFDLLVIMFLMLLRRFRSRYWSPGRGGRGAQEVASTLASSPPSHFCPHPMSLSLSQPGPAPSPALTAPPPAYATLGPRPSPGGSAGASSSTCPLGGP
Sequence of Amiloride-sensitive sodium channel, ENaC (P51168 whole entry): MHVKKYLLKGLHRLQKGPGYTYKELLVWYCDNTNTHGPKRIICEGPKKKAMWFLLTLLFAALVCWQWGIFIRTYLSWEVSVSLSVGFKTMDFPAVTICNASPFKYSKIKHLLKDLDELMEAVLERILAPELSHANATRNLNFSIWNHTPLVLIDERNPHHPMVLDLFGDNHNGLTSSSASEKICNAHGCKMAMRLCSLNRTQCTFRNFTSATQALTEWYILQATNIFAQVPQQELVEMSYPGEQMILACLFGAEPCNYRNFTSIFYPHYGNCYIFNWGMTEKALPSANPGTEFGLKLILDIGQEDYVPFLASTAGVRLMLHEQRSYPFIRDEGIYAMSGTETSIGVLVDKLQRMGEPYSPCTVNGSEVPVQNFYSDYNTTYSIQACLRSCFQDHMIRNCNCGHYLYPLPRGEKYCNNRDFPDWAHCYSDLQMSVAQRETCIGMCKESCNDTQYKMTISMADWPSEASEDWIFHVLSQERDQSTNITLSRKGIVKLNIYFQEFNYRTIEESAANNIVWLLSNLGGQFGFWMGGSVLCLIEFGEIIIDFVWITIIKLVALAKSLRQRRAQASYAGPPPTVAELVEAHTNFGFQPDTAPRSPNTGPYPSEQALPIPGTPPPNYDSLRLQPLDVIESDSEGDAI
Sequence of Amiloride-sensitive sodium channel, ENaC (P51170 whole entry): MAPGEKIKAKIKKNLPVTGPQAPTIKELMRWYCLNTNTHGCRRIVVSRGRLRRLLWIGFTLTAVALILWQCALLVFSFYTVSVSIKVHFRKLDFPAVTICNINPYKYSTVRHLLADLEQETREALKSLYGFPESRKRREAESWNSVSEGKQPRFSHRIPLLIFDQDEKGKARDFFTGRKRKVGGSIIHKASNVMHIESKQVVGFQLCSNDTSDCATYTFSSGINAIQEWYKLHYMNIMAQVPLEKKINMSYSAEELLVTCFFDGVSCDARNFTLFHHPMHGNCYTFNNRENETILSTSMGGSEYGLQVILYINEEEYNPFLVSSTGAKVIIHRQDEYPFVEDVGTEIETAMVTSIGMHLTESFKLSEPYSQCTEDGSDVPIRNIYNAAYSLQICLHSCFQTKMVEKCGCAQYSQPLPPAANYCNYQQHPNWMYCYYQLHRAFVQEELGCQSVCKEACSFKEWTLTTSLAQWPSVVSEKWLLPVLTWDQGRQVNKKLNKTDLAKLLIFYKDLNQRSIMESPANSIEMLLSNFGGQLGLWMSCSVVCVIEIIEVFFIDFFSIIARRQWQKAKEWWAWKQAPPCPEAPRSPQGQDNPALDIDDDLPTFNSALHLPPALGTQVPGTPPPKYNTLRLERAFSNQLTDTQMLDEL
Sequence of Sodium-dependent noradrenaline transporter (Homo sapiens) (P23975 whole entry): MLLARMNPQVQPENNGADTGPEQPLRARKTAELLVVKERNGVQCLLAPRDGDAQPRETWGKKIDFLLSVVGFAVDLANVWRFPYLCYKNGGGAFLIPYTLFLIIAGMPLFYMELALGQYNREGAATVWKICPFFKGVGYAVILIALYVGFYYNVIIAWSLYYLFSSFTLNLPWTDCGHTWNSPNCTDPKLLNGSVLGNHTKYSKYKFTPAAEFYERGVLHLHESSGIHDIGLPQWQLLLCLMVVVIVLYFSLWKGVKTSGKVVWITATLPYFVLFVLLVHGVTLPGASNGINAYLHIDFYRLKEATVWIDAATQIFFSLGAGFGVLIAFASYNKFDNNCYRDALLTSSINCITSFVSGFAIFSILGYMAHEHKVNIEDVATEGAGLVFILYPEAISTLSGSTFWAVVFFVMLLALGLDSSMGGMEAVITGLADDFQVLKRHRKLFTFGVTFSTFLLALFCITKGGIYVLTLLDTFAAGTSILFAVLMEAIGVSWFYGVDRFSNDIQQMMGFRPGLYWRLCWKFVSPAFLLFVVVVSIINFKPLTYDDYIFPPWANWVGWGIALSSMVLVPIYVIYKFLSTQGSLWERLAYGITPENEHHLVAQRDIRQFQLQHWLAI
Sequence of Beta-1 adrenergic receptor (Homo sapiens) (P08588 whole entry, looked up): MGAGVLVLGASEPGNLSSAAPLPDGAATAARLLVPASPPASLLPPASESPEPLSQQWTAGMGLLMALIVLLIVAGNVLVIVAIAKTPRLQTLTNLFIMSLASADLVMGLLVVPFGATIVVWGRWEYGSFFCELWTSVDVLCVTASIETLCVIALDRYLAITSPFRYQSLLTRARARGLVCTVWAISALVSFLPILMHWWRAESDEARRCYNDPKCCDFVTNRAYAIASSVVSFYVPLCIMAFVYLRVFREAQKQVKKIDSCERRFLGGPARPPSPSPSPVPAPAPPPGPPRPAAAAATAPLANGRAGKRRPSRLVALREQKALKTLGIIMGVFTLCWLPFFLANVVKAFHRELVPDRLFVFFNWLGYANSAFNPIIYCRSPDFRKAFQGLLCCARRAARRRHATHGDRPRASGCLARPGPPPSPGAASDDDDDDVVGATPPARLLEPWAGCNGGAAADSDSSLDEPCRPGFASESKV

CCn1c(CNC(=O)c2ncc(C)nc2N)[n+](CC)c2ccc(C(=O)N(C)CN(C)C)cc21 was tested, and the residual activity [1] was 107%, the activity at 10 µM (hERG (KCNH2)) was 81% (not active) and the residual activity [2] was 82%. For the same molecule, the residual activity [3] was 96%, the residual activity [4] was 87% and the residual activity [5] was 79%. The residual activity [6] was 96%, the residual activity [7] was 95% and the residual activity [8] was 105%. The IC50 [9] was > 10 µM (not active), the residual activity [10] was 102% and the residual activity [11] was 105%. The residual activity [12] was 111%, the residual activity ([13]; Compound concentration 10.0 uM) was 39% and the residual activity [14] was 97%. It also gave a residual activity [15] of 61%, a residual activity [16] of 91% and a residual activity [17] of 99%. The residual activity [18] was 94%, the residual activity [19] was 97% and the activity at 10 µM [20] was 87% (not active). It also gave a residual activity [21] of 90% and a residual activity [22] of 103%.

For CCn1c(CNC(=O)c2nc(Cl)cnc2N)[n+](CC)c2ccc(C(=O)N(C)CCN(C)C)cc21, the residual activity [1] was 109%, the activity at 10 µM (hERG (KCNH2)) was 91% (not active) and the residual activity [2] was 84%. For the same molecule, the residual activity [3] was 119%, the residual activity [4] was 100% and the residual activity [5] was 101%. It also gave a residual activity [6] of 130%, a residual activity [7] of 95% and a residual activity [8] of 97%. The IC50 [9] was 0.017 µM (active), the residual activity [10] was 103% and the residual activity [11] was 110%. The residual activity [12] was 107%, the residual activity ([13]; Compound concentration 10.0 uM) was 55.6% and the residual activity ([13]; Compound concentration 30.0 uM) was 31%. For the same molecule, the residual activity ([13]; Compound concentration 100.0 uM) was 24%, the residual activity [14] was 95% and the residual activity [15] was 92%. It also gave a residual activity [16] of 105%, a residual activity [17] of 101% and a residual activity [18] of 101%. For the same molecule, the residual activity [19] was 112%, the activity at 10 µM [20] was 89% (not active) and the residual activity [21] was 83%. The residual activity [22] was 101%.
